Key:
[1] = Skin irritativeness, SPI value (skin irritation value of epoxy); conditions: for Toxicity Skin Irritativeness (SPI · %): ingredient of the adhesive of Example 5, Table 1
[2] = Toxicity of adhesive ingredients, LD 50 (Table 1); format: in vivo; conditions: ingredient of the adhesive of Example 5, Table 1

Compound | Toxicity Skin Irritativeness (SPI · %) [1] | skin irritativeness ([1]; result in words) | Toxicity LD 50 [2]
O=C1OC(=O)C2CC=CCC12 (stereo not shown) [alicyclic acid anhydride II, Tetrahydrophthalic anhydride] | 3 SPI · % | low skin irritativeness | 
hydrogenated bisphenol A type epoxy [alicyclic epoxy] | 3 SPI · % |  | 3900 mg/kg

From patent publication US5654116A, “Hologram” (priority 1993, dated 1997)
